Source: article PMC7943464, “Dim Red Light During Scotophase Enhances Mating of a Moth Through Increased Male Antennal Sensitivity Against the Female Sex Pheromone” (Frontiers in Genetics, 2021)

Target: T1, CpunOBP2 (Conogethes punctiferalis, UniProt A0A0C4K8H3)
T1 construct: gene OBP2; pET-32a(+) in E. coli BL21(DE3); Ni-IDA purified; tags removed by enterokinase
T1 sequence (A0A0C4K8H3 23-151): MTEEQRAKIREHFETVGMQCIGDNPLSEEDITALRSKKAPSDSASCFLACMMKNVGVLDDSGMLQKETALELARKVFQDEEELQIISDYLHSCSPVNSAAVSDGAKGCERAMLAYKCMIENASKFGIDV
Assay: competitive 1-NPN fluorescence displacement
Format: binding
Source text: competitive 1-NPN fluorescence displacement on CpunOBP2

| Compound | IC50 [µM] | Ki [µM] |
| --- | --- | --- |
| CC/C=C\C/C=C\C/C=C\CCCCCCCCCCCCC [Z3, Z6, Z9-23∶HC, (Z3, Z6, Z9)-tricosatriene] | 4.14 ± 2.63 | 3.68 ± 2.33 |
| CCCCC/C=C\CCCCCCCCC=O [Z10-16∶Ald, (Z)-10-hexadecenal] | 7.73 ± 2.82 | 6.86 ± 2.5 |
| CCCCC/C=C/CCCCCCCCC=O [E10-16∶Ald, (E)-10-hexadecenal] | 9.55 ± 4.58 | 8.48 ± 4.06 |
